Assay: Phase I clinical trial: grade 3 or greater treatment-emergent adverse events (Table 9)
Format: in vivo
Description: Adult patients with histologically confirmed advanced solid tumors were enrolled in a 3+3 dose escalation Phase I study evaluating 3 intermittent schedules of administration for compound A: QW (once weekly), QD×3d QW (3 days on 4 days off), and QD×5d QW (5 days on 2 days off), in comparison with daily dosing (QD). Safety, maximum tolerated dose (MTD), pharmacokinetics (PK) and preliminary antitumor activity were evaluated.
Pharmacodynamic (PD) endpoints were evaluated in surrogate (peripheral blood cells [PBCs], skin) and tumor tissues for the phosphorylation of TORC1-dependent markers (4EBP1/S6), and TORC2-dependent markers (AKT/PRAS40). 50 patients were treated in 3 intermittent dosing regimens; 21 in 6 cohorts ranging 7-40 mg QW, 20 in 5 cohorts ranging 6-20 mg QD×3d QW, and 9 in 3 cohorts ranging 7-13 mg QD×5d QW. […] The MTD for intermittent dosing was not reached. All adverse events (AEs) reported were reversible. The most common (≧20%, n=35) AEs considered possibly related to compound A reported in all 3 dosing regimens included nausea (51%), hyperglycemia (37%), mucosal inflammation (29%), rash (23%), asthenia (23%), vomiting (26%), and diarrhea (20%). The majority of AEs considered possibly related to compound A in any regimen were Grade 1 or 2. The only reported Grade≧3 AE (≧5%) possibly related to compound A in 3 regimens was lymphopenia (6%). Tables 4-9 show summaries of observed adverse events for various treatment regimens of the invention.

## CC(C)n1nc(-c2ccc3oc(N)nc3c2)c2c(N)ncnc21 [compound A]
3 regimens
  Grade≧3 AE (≧5%) possibly related: lymphopenia: 6%
Total QD Dosing, N = 25
  Abdominal pain upper, Grade 3 or greater TEAE: 1 (4%)
  Anaemia, grade 3 or greater TEAE: 1 (4%)
  Aspartate aminotransferase increased, Grade 3 or greater TEAE: 0 (0%)
  Asthenia, grade 3 or greater TEAE: 0 (0%)
  Catheter related infection, Grade 3 or greater TEAE: 1 (4%)
  Cellulitis, Grade 3 or greater TEAE: 1 (4%)
  Diarrhoea, grade 3 or greater TEAE: 1 (4%)
  Disease progression, grade 3 or greater TEAE: 0 (0%)
  Enterocutaneous fistula, Grade 3 or greater TEAE: 1 (4%)
  Gamma-glutamyltransferase increased, Grade 3 or greater TEAE: 0 (0%)
  Gastroenteritis, Grade 3 or greater TEAE: 0 (0%)
  Hyperglycaemia, grade 3 or greater TEAE: 4 (16%)
  Hypokalaemia, grade 3 or greater TEAE: 2 (8%)
  Hyponatraemia, grade 3 or greater TEAE: 2 (8%)
  Lymphopenia, grade 3 or greater TEAE: 2 (8%)
  Pancreatitis acute, Grade 3 or greater TEAE: 1 (4%)
  Pleural effusion, Grade 3 or greater TEAE: 1 (4%)
  Pruritus, grade 3 or greater TEAE: 2 (8%)
  Rash macular, Grade 3 or greater TEAE: 0 (0%)
  Rash, grade 3 or greater TEAE: 7 (28%)
  Somnolence, Grade 3 or greater TEAE: 1 (4%)
  Thrombocytopenia, grade 3 or greater TEAE: 2 (8%)
  Urinary tract infection, Grade 3 or greater TEAE: 0 (0%)
Total QDx3d QW, N = 14
  Abdominal pain upper, Grade 3 or greater TEAE: 0 (0%)
  Anaemia, grade 3 or greater TEAE: 0 (0%)
  Aspartate aminotransferase increased, Grade 3 or greater TEAE: 0 (0%)
  Asthenia, grade 3 or greater TEAE: 1 (7%)
  Catheter related infection, Grade 3 or greater TEAE: 0 (0%)
  Cellulitis, Grade 3 or greater TEAE: 0 (0%)
  Diarrhoea, grade 3 or greater TEAE: 1 (7%)
  Disease progression, grade 3 or greater TEAE: 1 (7%)
  Enterocutaneous fistula, Grade 3 or greater TEAE: 0 (0%)
  Gamma-glutamyltransferase increased, Grade 3 or greater TEAE: 1 (7%)
  Gastroenteritis, Grade 3 or greater TEAE: 1 (7%)
  Hyperglycaemia, grade 3 or greater TEAE: 1 (7%)
  Hypokalaemia, grade 3 or greater TEAE: 0 (0%)
  Hyponatraemia, grade 3 or greater TEAE: 0 (0%)
  Lymphopenia, grade 3 or greater TEAE: 1 (7%)
  Pancreatitis acute, Grade 3 or greater TEAE: 0 (0%)
  Patients Reporting at Least One Grade 3 or Greater TEAE: 7 (50%)
  Pleural effusion, Grade 3 or greater TEAE: 0 (0%)
  Pruritus, grade 3 or greater TEAE: 0 (0%)
  Rash macular, Grade 3 or greater TEAE: 1 (7%)
  Rash, grade 3 or greater TEAE: 0 (0%)
  Somnolence, Grade 3 or greater TEAE: 0 (0%)
  Thrombocytopenia, grade 3 or greater TEAE: 0 (0%)
  Urinary tract infection, Grade 3 or greater TEAE: 1 (7%)
Total QDx5d QW, N = 6
  Abdominal pain upper, Grade 3 or greater TEAE: 0 (0%)
  Anaemia, grade 3 or greater TEAE: 0 (0%)
  Aspartate aminotransferase increased, Grade 3 or greater TEAE: 0 (0%)
  Asthenia, grade 3 or greater TEAE: 0 (0%)
  Catheter related infection, Grade 3 or greater TEAE: 0 (0%)
  Cellulitis, Grade 3 or greater TEAE: 0 (0%)
  Diarrhoea, grade 3 or greater TEAE: 0 (0%)
  Disease progression, grade 3 or greater TEAE: 0 (0%)
  Enterocutaneous fistula, Grade 3 or greater TEAE: 0 (0%)
  Gamma-glutamyltransferase increased, Grade 3 or greater TEAE: 0 (0%)
  Gastroenteritis, Grade 3 or greater TEAE: 0 (0%)
  Hyperglycaemia, grade 3 or greater TEAE: 0 (0%)
  Hypokalaemia, grade 3 or greater TEAE: 0 (0%)
  Hyponatraemia, grade 3 or greater TEAE: 0 (0%)
  Lymphopenia, grade 3 or greater TEAE: 0 (0%)
  Pancreatitis acute, Grade 3 or greater TEAE: 0 (0%)
  Patients Reporting at Least One Grade 3 or Greater TEAE: 0 (0%)
  Pleural effusion, Grade 3 or greater TEAE: 0 (0%)
  Pruritus, grade 3 or greater TEAE: 0 (0%)
  Rash macular, Grade 3 or greater TEAE: 0 (0%)
  Rash, grade 3 or greater TEAE: 0 (0%)
  Somnolence, Grade 3 or greater TEAE: 0 (0%)
  Thrombocytopenia, grade 3 or greater TEAE: 0 (0%)
  Urinary tract infection, Grade 3 or greater TEAE: 0 (0%)
Total QW Dosing, N = 15
  Abdominal pain upper, Grade 3 or greater TEAE: 0 (0%)
  Anaemia, grade 3 or greater TEAE: 0 (0%)
  Aspartate aminotransferase increased, Grade 3 or greater TEAE: 1 (7%)
  Asthenia, grade 3 or greater TEAE: 0 (0%)
  Catheter related infection, Grade 3 or greater TEAE: 0 (0%)
  Cellulitis, Grade 3 or greater TEAE: 0 (0%)
  Diarrhoea, grade 3 or greater TEAE: 1 (7%)
  Disease progression, grade 3 or greater TEAE: 0 (0%)
  Enterocutaneous fistula, Grade 3 or greater TEAE: 0 (0%)
  Gamma-glutamyltransferase increased, Grade 3 or greater TEAE: 1 (7%)
  Gastroenteritis, Grade 3 or greater TEAE: 0 (0%)
  Hyperglycaemia, grade 3 or greater TEAE: 0 (0%)
  Hypokalaemia, grade 3 or greater TEAE: 0 (0%)
  Hyponatraemia, grade 3 or greater TEAE: 0 (0%)
  Lymphopenia, grade 3 or greater TEAE: 1 (7%)
  Pancreatitis acute, Grade 3 or greater TEAE: 0 (0%)
  Patients Reporting at Least One Grade 3 or Greater TEAE: 3 (20%)
  Pleural effusion, Grade 3 or greater TEAE: 0 (0%)
  Pruritus, grade 3 or greater TEAE: 0 (0%)
  Rash macular, Grade 3 or greater TEAE: 0 (0%)
  Rash, grade 3 or greater TEAE: 0 (0%)
  Somnolence, Grade 3 or greater TEAE: 0 (0%)
  Thrombocytopenia, grade 3 or greater TEAE: 0 (0%)
  Urinary tract infection, Grade 3 or greater TEAE: 0 (0%)
Total, N = 60
  Abdominal pain upper, Grade 3 or greater TEAE: 1 (2%)
  Anaemia, grade 3 or greater TEAE: 1 (2%)
  Aspartate aminotransferase increased, Grade 3 or greater TEAE: 1 (2%)
  Asthenia, grade 3 or greater TEAE: 1 (2%)
  Catheter related infection, Grade 3 or greater TEAE: 1 (2%)
  Cellulitis, Grade 3 or greater TEAE: 1 (2%)
  Diarrhoea, grade 3 or greater TEAE: 3 (5%)
  Disease progression, grade 3 or greater TEAE: 1 (2%)
  Enterocutaneous fistula, Grade 3 or greater TEAE: 1 (2%)
  Gamma-glutamyltransferase increased, Grade 3 or greater TEAE: 2 (3%)
  Gastroenteritis, Grade 3 or greater TEAE: 1 (2%)
  Hyperglycaemia, grade 3 or greater TEAE: 5 (8%)
  Hypokalaemia, grade 3 or greater TEAE: 2 (3%)
  Hyponatraemia, grade 3 or greater TEAE: 2 (3%)
  Lymphopenia, grade 3 or greater TEAE: 4 (7%)
  Pancreatitis acute, Grade 3 or greater TEAE: 1 (2%)
  Pleural effusion, Grade 3 or greater TEAE: 1 (2%)
  Pruritus, grade 3 or greater TEAE: 2 (3%)
  Rash macular, Grade 3 or greater TEAE: 1 (2%)
  Rash, grade 3 or greater TEAE: 7 (12%)
  Somnolence, Grade 3 or greater TEAE: 1 (2%)
  Thrombocytopenia, grade 3 or greater TEAE: 2 (3%)
  Urinary tract infection, Grade 3 or greater TEAE: 1 (2%)

Source: patent publication US20130209543A1, “ENHANCED TREATMENT REGIMENS USING MTOR INHIBITORS” (Intellikine LLC, priority 2011, published 2013)
